Measured values: PubChem BioAssay AID1259407 (Chemical Carcinogenesis Research Information System (CCRIS), 2018)
Activity calls are given as the source filed them. No rule for the calls is given here.

Tested on: CCRIS mutagenicity, Ames/micronucleus/aberration tests
Experiment: CCRIS mutagenicity studies
Details: Test System: AMES SALMONELLA TYPHIMURIUM, Method: STANDARD PLATE
[1] = Strain/Indicator: TA98, Metabolic Activation: NONE
[2] = Strain/Indicator: TA100, Metabolic Activation: NONE
[3] = Strain/Indicator: TA100, Metabolic Activation: S-9

`O=c1[nH]c2ccccc2n1C1CCN(CCCC(c2ccc(F)cc2)c2ccc(F)cc2)CC1` was tested, and the mutagenic call [1] was “inactive; negative”, the mutagenic call (Strain/Indicator: TA98, Metabolic Activation: RAT, LIVER, S-9, AROCLOR 1254) was “inactive; negative” and the mutagenic call [2] was “inactive; negative”. The mutagenic call (Strain/Indicator: TA100, Metabolic Activation: RAT, LIVER, S-9, AROCLOR 1254) was “inactive; negative”, the mutagenic call (Strain/Indicator: TA1535, Metabolic Activation: NONE) was “inactive; negative” and the mutagenic call (Strain/Indicator: TA1535, Metabolic Activation: RAT, LIVER, S-9, AROCLOR 1254) was “inactive; negative”. The mutagenic call (Strain/Indicator: TA1537, Metabolic Activation: NONE) was “inactive; negative” and the mutagenic call (Strain/Indicator: TA1537, Metabolic Activation: RAT, LIVER, S-9, AROCLOR 1254) was “inactive; negative”.
In the case of `O=C(N=c1sn(C(=O)c2ccccc2)c2ccc([N+](=O)[O-])cc12)c1ccccc1`, the mutagenic call [3] is reported as “active; positive”.
In the case of `C[C@H]1CC[C@@H]2[C@@H](C)[C@H]3C(C[C@H]4[C@@H]5CC=C6C[C@@H](O[C@@H]7O[C@H](CO)[C@H](O)[C@H](O[C@@H]8O[C@H](CO)[C@@H](O)[C@H](O)[C@H]8O)[C@H]7O[C@@H]7O[C@@H](C)[C@H](O)[C@@H](O)[C@H]7O)CC[C@]6(C)C5CC[C@]34C)N2C1` (stereo not given in full), the mutagenic call [1] is reported as “inactive; negative”, the mutagenic call (Strain/Indicator: TA98, Metabolic Activation: S-9) is reported as “inactive; negative” and the mutagenic call [2] is reported as “inactive; negative”. For the same compound, the mutagenic call [3] was “inactive; negative”.
`BrCc1cccc2c1-c1cccc3cccc-2c13` was tested, and the mutagenic call [1] was “active; positive” and the mutagenic call [2] was “active; positive”.
